Experimental data taken from patent US20080261895A1 (Wyeth, priority 2006, published 2008).
Several values for one entry are separate records, joined by “and”; a condition that tells them apart may be missing. Equal entries are not always repeated.

Experiments:
[1] = Fecal excretion and metabolite profile by radiochromatography, dogs; assay type: in vivo, beagle dogs; conditions: single oral 30 mg/kg; for Compounds Detected by Radiochromatography in feces, percent of total peaks, individual dogs: feces 0-24 hours post dose (dog 7 until 48 hours), average of 2 analyses; for Compounds Detected by Radiochromatography in feces, percent of total peaks, Mean ± S.D.: feces 0-24 hours post dose
Procedure: (§1) For each dog, urine and feces were collected separately, with urine collected on dry ice and feces collected at room temperature. Collections were from 0-8 and 8-24 hours for urine and 0-24 hours for feces. Urine and fecal samples were shipped on dry ice to Wyeth Research, Biotransformation Division (Collegeville, Pa.) for analysis. Fecal samples were homogenized in approximately five volumes (v/w) of water. Aliquots of approximately 0.2 grams of the homogenate were placed into combusto-cones, weighed and allowed to air dry. These samples were then oxidized and radioactivity content determined. The remaining urine samples and fecal homogenates were stored at −70° C. until metabolite analysis. Blood samples and fecal homogenates were oxidized in a Model 307 Tri-Carb sample oxidizer, using Carbosorb® E (6 mL) as trapping agent and PermaFluor® E^+ (10 mL) as scintillant. The background reading (average of control blood or fecal samples) was subtracted from each sample reading. Aliquots of urine and plasma were analyzed directly following the addition of 10 mL of Ultima Gold™ scintillation fluid.
Fecal homogenates collected up to 24 hours post-dose were analyzed for metabolite profiles. Aliquots of approximately 2 grams of fecal homogenate were transferred to a fresh tube, an equal volume of acetonitrile (v/w) was added, and the tube vortexed. Samples were then centrifuged at 14000 rpm in an Eppendorf Model 5415C centrifuge for 10 minutes. The supernatant was transferred to a clean tube. The residue was re-suspended with 1 mL acetonitrile and centrifuged as described above. The resulting supernatant was combined with the original supernatant and analyzed for radioactivity. The supernatants were then concentrated under a stream of nitrogen in a Turbo Vap to remove the acetonitrile. An aliquot of the aqueous residue was analyzed by HPLC for profiling. Selected samples were also analyzed by LC/MS to characterize the radioactive peaks.
(§2) Chromatographic analyses were performed with a Waters Alliance model 2690 HPLC system (Waters Corp., Milford, Mass.). It was equipped with a built-in autosampler and was in-line with a model 2487 tunable UV detector, set to monitor 225 nm, and a FloOne β Model 515 radioactivity flow detector (Perkin Elmer) with a 250 μL LQTR flow cell. The flow rate of Ultima Flow M scintillation fluid was 3 mL/min, providing a mixing ratio of scintillation cocktail to mobile phase of 3:1. Separation of the metabolite peaks was accomplished on a Phenomenex Luna C18(2) column, 250×4.6 mm, 5 micron (Phenomenex, Torrance, Calif.), using a linear gradient of two mobile phases, A and B. Mobile phase A was 10 mM ammonium acetate, pH 5.5, and mobile phase B was acetonitrile. The flow rate was 1 mL/min.

[2] = Fecal excretion and metabolite profile by radiochromatography, rats; assay type: in vivo, Sprague Dawley rats; conditions: male rats, feces 8-24 hours post-dose, single oral 20 mg/kg, 20 mg/kg
Procedure: (§3) Urine and feces were collected separately on dry ice from three animals per sex. Collections were from 0-8 and 8-24 hours for male rats and 0-8 hours for female rats. Fecal samples were homogenized in approximately five volumes (v/w) of water. Aliquots of approximately 0.4 grams of the homogenate were placed into combusto-cones, weighed and allowed to air dry. These samples were then oxidized. The remaining urine samples and fecal homogenates were stored at −70° C. until metabolite analysis.
Fecal homogenates collected from male rats between 8 and 24 hours post-dose were analyzed for metabolite profiles. Aliquots of approximately 1 gram of fecal homogenate were centrifuged at 3500 rpm and 4° C. in a Sorvall Super 21 centrifuge for 10 minutes. The supernatant was transferred to a clean tube. The residue was re-suspended with 1 mL of water:acetonitrile (1:1, v:v) and centrifuged as described above. The resulting supernatant was combined with the original supernatant and the residue re-suspended with 1 mL of acetonitrile. The suspension was centrifuged as described above, and the supernatants were combined and analyzed for radioactivity. The supernatants were then concentrated under a stream of nitrogen in a Turbo Vap to remove the acetonitrile. An aliquot of the aqueous residue was analyzed by HPLC for profiling. Selected samples were also analyzed by LC/MS to characterize the radioactive peaks.
as §2, with “β Model 525 radioactivity flow” for “β Model 515 radioactivity flow”, “fluid was 1 mL/min, providing” for “fluid was 3 mL/min, providing”, “phase of 5:1. Separation of” for “phase of 3:1. Separation of”, “C18(2) column, 150×2.0 mm, 5” for “C18(2) column, 250×4.6 mm, 5”, “acetate, pH 6.0, and mobile” for “acetate, pH 5.5, and mobile”, “rate was 0.2 mL/min.” for “rate was 1 mL/min.”

[3] = Metabolites of DVS observed by LC/MS in dog plasma, urine and feces; assay type: in vivo, beagle dogs; conditions: P: plasma, U: urine, F: feces
Procedure: An Agilent Model 1100 HPLC system (Agilent Technologies, Wilmington, Del.) including an autosampler and diode array UV detector was used for LC/MS analysis. The UV detector was set to monitor 200 to 400 nm. Separations were accomplished on a 5 micron Phenomenex Luna C18(2) column, 150×2 mm (Phenomenex). The column temperature was 25° C. For selected LC/MS analyses, radiochromatograms were acquired using a β-RAM model 3 radioactivity flow detector (IN/US Systems Inc., Tampa, Fla.) equipped with a solid scintillation flow cell.
The mass spectrometers used for metabolite characterization were a Micromass Q-TOF-2 quadrupole time-of-flight hybrid mass spectrometer (Micromass, Inc., Beverly, Mass.) and a Finnigan LCQ Deca ion trap mass spectrometer (ThermoFinnigan, San Jose, Calif.). The mass spectrometer was equipped with an electrospray ionization (ESI) interface and operated in the positive ionization mode.

[4] = Metabolites of DVS observed by LC/MS in rat plasma, urine and feces; assay type: in vivo, Sprague Dawley rats; conditions: P: plasma, U: urine, F: feces
Procedure: An Agilent Model 1100 HPLC system (Agilent Technologies, Wilmington, Del.) including an autosampler and diode array UV detector was used for LC/MS analysis. The UV detector was set to monitor 200 to 400 nm. Separations were accomplished on a 5 micron Phenomenex Luna C18(2) column, 150×2 mm (Phenomenex). The column temperature was 25° C. The mobile phases and gradient program were as follows.
The mass spectrometer used for metabolite characterization was a Micromass Q-TOF-2 quadrupole time-of-flight hybrid mass spectrometer (Micromass, Inc., Beverly, Mass.). The mass spectrometer was equipped with an electrospray ionization (ESI) interface and operated in the positive ionization mode.

[5] = Urinary excretion and metabolite profile by radiochromatography, rats; assay type: in vivo, Sprague Dawley rats; conditions: for Compounds Detected by Radiochromatography in urine (Mean ± S.D., n = 3), percent of total peaks: single oral 20 mg/kg
Procedure: as §3
All urine samples were analyzed for metabolite profiles. Aliquots of 0.5 mL urine were centrifuged at 3500 rpm and 4° C. in a Sorvall Super 21 centrifuge for 10 minutes. The supernatant was transferred to a fresh tube and analyzed for radioactivity content and by HPLC for profiling. Selected samples were also analyzed by LC/MS to characterize the radioactive peaks.
as §2, with “β Model 525 radioactivity flow” for “β Model 515 radioactivity flow”, “fluid was 1 mL/min, providing” for “fluid was 3 mL/min, providing”, “phase of 5:1. Separation of” for “phase of 3:1. Separation of”, “C18(2) column, 150×2.0 mm, 5” for “C18(2) column, 250×4.6 mm, 5”, “acetate, pH 6.0, and mobile” for “acetate, pH 5.5, and mobile”, “rate was 0.2 mL/min.” for “rate was 1 mL/min.”

[6] = Plasma metabolite profile by radiochromatography, rats; assay type: in vivo, Sprague Dawley rats; conditions: single oral 20 mg/kg DVS
Procedure: Plasma samples collected at 1, 4 and 8 hours post-dose were analyzed for metabolite profiles. Aliquots of 0.5 mL plasma were mixed with an equal volume of acetonitrile, placed on ice for approximately 10 minutes, and then centrifuged at 3500 rpm and 4° C. in a Sorvall Super 21 centrifuge for 10 minutes. The supernatant fluid was transferred to a clean tube. The supernatant was analyzed for radioactivity. The supernatant was concentrated under a stream of nitrogen in a Turbo Vap (Zymark, Hopinkton, Mass.) to remove the acetonitrile. An aliquot of the aqueous residue was analyzed by HPLC for metabolite profiling. Selected samples were also analyzed by LC/MS to characterize the radioactive peaks.
as §2, with “β Model 525 radioactivity flow” for “β Model 515 radioactivity flow”, “fluid was 1 mL/min, providing” for “fluid was 3 mL/min, providing”, “phase of 5:1. Separation of” for “phase of 3:1. Separation of”, “C18(2) column, 150×2.0 mm, 5” for “C18(2) column, 250×4.6 mm, 5”, “acetate, pH 6.0, and mobile” for “acetate, pH 5.5, and mobile”, “rate was 0.2 mL/min.” for “rate was 1 mL/min.”

[7] = Plasma metabolite profile by radiochromatography, dogs; assay type: in vivo, beagle dogs; conditions: single oral 30 mg/kg DVS
Procedure: Plasma samples collected at 1 and 4 hours post-dose were analyzed for metabolite profiles. Aliquots of 1 mL plasma were mixed with an equal volume of acetonitrile, placed on ice for at least 10 minutes, and then centrifuged at 14000 rpm in an Eppendorf Model 5415C centrifuge for 10 minutes. The supernatant fluid was transferred to a clean tube. The supernatant was analyzed for radioactivity. The supernatant was concentrated under a stream of nitrogen in a Turbo Vap (Zymark, Hopinkton, Mass.) to remove the acetonitrile. An aliquot of the aqueous residue was analyzed by HPLC for profiling. Selected samples were also analyzed by LC/MS to characterize the radioactive peaks.
Chromatographic analyses were performed with a Waters Alliance model 2690 HPLC system (Waters Corp., Milford, Mass.). It was equipped with a built-in autosampler and was in-line with a model 2487 tunable UV detector, set to monitor 225 nm, and a FloOne β Model 515 radioactivity flow detector (Perkin Elmer) with a 250 μL LQTR flow cell. The flow rate of Ultima Flow M scintillation fluid was 3 mL/min, providing a mixing ratio of scintillation cocktail to mobile phase of 3:1. […]

[8] = Urinary excretion and metabolite profile by radiochromatography, dogs; assay type: in vivo, beagle dogs; conditions: urine 8-24 hours post-dose, single oral 30 mg/kg, mean of 2 analyses, 30 mg/kg
Procedure: as §1
Urine samples collected between 8 and 24 hours post-dose were analyzed for metabolite profiles. Aliquots of urine were centrifuged at 14000 rpm in an Eppendorf Model 5415C centrifuge for 10 minutes. The supernatant was transferred to a fresh tube and analyzed for radioactivity content and by HPLC for metabolite profiling. Selected samples were also analyzed by LC/MS to characterize the radioactive peaks.
as §2

Row | Compound | Compounds Detected by Radiochromatography in feces, percent of total peaks, individual dogs [1] | Compounds Detected by Radiochromatography in feces, percent of total peaks, Mean ± S.D. [2] | Matrix (metabolite observed by LC/MS) [3] | Matrix (metabolite observed by LC/MS) [4] | Compounds Detected by Radiochromatography in urine, percent of total peaks, individual dogs [8] | Compounds Detected by Radiochromatography in feces, percent of total peaks, Mean ± S.D. [1] | other results
1 | CNCC(c1ccc(O)cc1)C1(O)CCCCC1 (centres unmarked) [Metabolite M10, N,O-didesmethylvenlafaxine] | 9.8% and 17.7% and 8.6% and 11.2% | 34% and 33.6 ± 0.9% | P, U, F | P, U, F | – | – | Compounds Detected by Radiochromatography in feces, percent of total peaks, individual rats [2]: 34.5% and 32.6% and 33.6%
2 | CN(C)CC(c1ccc(O[C@@H]2O[C@H](C(=O)O)[C@@H](O)[C@H](O)[C@H]2O)cc1)C1(O)CCCCC1 (some centres unmarked) [Metabolite M7, O-desmethylvenlafaxine O-glucuronide] | – | – | P, U, F | P, U, F | 84.1% and 83.5% and 83.9% and 86.8% | – | % of the radioactivity detected in urine ([5]; all urine samples at each time point): approximately 75%; Compounds Detected by Radiochromatography in urine (Mean ± S.D., n = 3), percent of total peaks ([5]; 0-8 hr, female): 74.0 ± 3.3%; Compounds Detected by Radiochromatography in urine (Mean ± S.D., n = 3), percent of total peaks ([5]; 0-8 hr, male): 76.5 ± 1.9%; Compounds Detected by Radiochromatography in urine (Mean ± S.D., n = 3), percent of total peaks ([5]; 8-24 hr, male): 77.2 ± 1.2%; % of the radioactivity in plasma ([6]; female rats, 1 hour post-dose): 86.6%; % of the radioactivity in plasma ([6]; male rats, 1 hour post-dose): 88.7%; % of the radioactivity in plasma ([6]; male rats, 4 hours post-dose): 93.6%; % of the radioactivity detected in plasma ([7]; 1 hour post-dose): 77.5%; % of the radioactivity detected in plasma ([7]; 4 hours post-dose): 96.4%
3 | CN(C)CC(O)(c1ccc(O)cc1)C1(O)CCCCC1 (centres unmarked) [Metabolite M9, Hydroxy DV] | – | – | U, F | – | – | – | –
4 | CNCC(c1ccc(O[C@@H]2O[C@H](C(=O)O)[C@@H](O)[C@H](O)[C@H]2O)cc1)C1(O)CCCCC1 (some centres unmarked) [Metabolite M13, N,O-didesmethylvenlafaxine O-glucuronide] | – | – | P, U | P, U | 3.3% and 3.5% and 4.3% and 3.6% | – | –
5 | C[N+](C)([O-])CC(c1ccc(O)cc1)C1(O)CCCCC1 (centres unmarked) [N-oxide DV] | 7.3% and 15.7% and 5.7% and 0.0% | 7% | P, U, F | P, U, F^b | – | approximately 7% | Compounds Detected by Radiochromatography in feces, percent of total peaks, Mean ± S.D. ([1]; listed as N-Oxide): 7.2 ± 6.1%; Compounds Detected by Radiochromatography in feces, percent of total peaks, Mean ± S.D. ([2]; listed as N-Oxide): 7.1 ± 1.3%; Compounds Detected by Radiochromatography in feces, percent of total peaks, individual rats ([2]; listed as N-Oxide): 6.0% and 6.7% and 8.5%
6 | NCC(c1ccc(O)cc1)C1(O)CCCCC1 (centres unmarked) [Metabolite M14, N,N,O-tridesmethylvenlafaxine] | 4.4% and 16.1% and 0.0% (2×) | – | U, F | – | – | 5.1 ± 7.0% | –
